Source: PMC7822819, “Discovery of a new class of integrin antibodies for fibrosis” (Scientific Reports, 2021)
Values joined by “and” are separate entries in the source; they are usually repeats but may differ in a detail not shown here. Equal values may be shown once.

Key:
[1] = tested on: bleomycin-induced lung fibrosis; experiment: Bleomycin-induced lung fibrosis mouse model; type: in vivo; settings: BLM mice, Nintedanib 60 mpk po qd
Procedure: Adult male C57BL/6 mice (Taconic, Rensselaer, NY) were housed in a temperature and humidity-controlled facility with a 12 h light: 12-h dark cycle. Animals had ad libitum access to food (Purina Rodent Chow 5053, LabDiet, St. Louis, MO) and water. All procedures utilizing experimental animals were conducted in accordance with the Guide for the Care and Use of Laboratory Animals, and experimental procedures were reviewed and approved by the Institutional Animal Care and Use Committee at MRL, Kenilworth, NJ. For osmotic minipump implantation, TFA salt of MK-0429 was formulated in 50% DMSO/50% H2O at a concentration of 416 mg/mL. MK-0429 or vehicle solution were filled in minipumps (Alzet, # 1007D, flow rate 0.5 μL/h). Minipumps were placed in mice subcutaneously in a pocket on the back between the shoulder blades. A small incision was made and a subcutaneous pocket formed by blunt dissection. A sterile minipump was inserted into the subcutaneous pocket. The incision was closed with staples or non-absorbable suture or absorbable (subcuticular) suture. The minipumps were used for continuous drug delivery for 2 weeks. Mice at 12 ~ 13 weeks of age were randomized to 5 groups: saline, bleomycin instillation with vehicle (osmotic minipump), bleomycin instillation with MK-0429 treatment, bleomycin instillation with vehicle oral treatment, and bleomycin instillation with Nintedanib treatment. All mice were anaesthetized with isoflurane. Bleomycin was dosed by intra-tracheal (i.t) instillation in a volume of 50 µl, at a dose of 1unit /kg body weight. After instillation, mice were kept in a heads-up position for 2–5 min before putting into cages. MK-0429 (200 mg/kg) was administered by Osmotic pump from day 5 to day 14 and Nintedanib (60 mg/kg) was administered, p.o., q.d., for 14 days. Vehicle was dosed orally at 10 am daily from the day 5 to the end of the studies and dosing volume was 10 mL/kg. For plasma PK analysis, an aliquot of 50 μL plasma was spiked into a 96-well plate, and 200 μL of acetonitrile containing internal standard were added for protein precipitation. The mixture was vortexed, centrifuged at 4000 rpm for 20 min. 50 μL of supernatant were mixed with 200 μl H2O and the final solution were injected for LC–MS/MS analysis. The methods for quantitative analysis were developed on UPLC (Waters) chromatographic system equipped with an API4000 QTrap mass spectrometer (Applied Biosystems, Concord, Ontario, Canada). Analyst 1.5 software packages (Applied Biosystems) were used to control the LC–MS/MS system and data acquisition and processing. Upon completion of the study, animals were euthanized and tissues were collected for histological assessment. Lung tissues were perfused with 10% formalin, fixed for 24 h, and then paraffin embedded. Tissue sections were stained with hematoxylin & eosin (H&E) and Masson’s trichrome, subsequently evaluated under light microscope. The severity of histopathologic changes and fibrosis in the lung were graded as described previously by pathologists[51],[52]. Following deparaffinization and rehydration, each lung tissue section was processed to identify αSMA deposition by immunohistochemistry. The primary antibodies used were αSMA antibody from Sigma. The Aperio ScanScope XT Slide Scanner (Aperio Technologies) system was used to capture whole slide digital images with a 20 × objective. Digital images were managed using Aperio Spectrum. The positive stains were identified and quantified using a macro created from a color deconvolution algorithm (Aperio Technologies). Statistical analysis was performed by using One-way ANOVA followed by Tukey’s test.

[2] = Plasma total drug concentration in bleomycin model (LC-MS/MS); type: in vivo, mouse; settings: 2 h after last dose, Day 19; MK-0429 200 mpk minipump, Nintedanib 60 mpk po qd; mean ± SE
Procedure: Mice at 12 ~ 13 weeks of age were randomized to 5 groups: saline, bleomycin instillation with vehicle (osmotic minipump), bleomycin instillation with MK-0429 treatment, bleomycin instillation with vehicle oral treatment, and bleomycin instillation with Nintedanib treatment. All mice were anaesthetized with isoflurane. Bleomycin was dosed by intra-tracheal (i.t) instillation in a volume of 50 µl, at a dose of 1unit /kg body weight. After instillation, mice were kept in a heads-up position for 2–5 min before putting into cages. MK-0429 (200 mg/kg) was administered by Osmotic pump from day 5 to day 14 and Nintedanib (60 mg/kg) was administered, p.o., q.d., for 14 days. Vehicle was dosed orally at 10 am daily from the day 5 to the end of the studies and dosing volume was 10 mL/kg. For plasma PK analysis, an aliquot of 50 μL plasma was spiked into a 96-well plate, and 200 μL of acetonitrile containing internal standard were added for protein precipitation. The mixture was vortexed, centrifuged at 4000 rpm for 20 min. 50 μL of supernatant were mixed with 200 μl H2O and the final solution were injected for LC–MS/MS analysis. The methods for quantitative analysis were developed on UPLC (Waters) chromatographic system equipped with an API4000 QTrap mass spectrometer (Applied Biosystems, Concord, Ontario, Canada). […]

[3] = tested on: normal human lung fibroblasts; experiment: TGFβ-induced αSMA high-content imaging; type: cell-based; settings: 10 μM, 30 min pre-treatment, TGFβ 5 ng/mL, 48 h
Procedure: (§1) Normal human lung fibroblasts (Lonza) and Primary Human IPF Lung Parenchymal Fibroblasts (Donor2) (BioIVT, #PCR-70-0214) were incubated at 37 °C and 5% CO2. To induce fibrotic response in primary cells, a final concentration of 5 ng/ml of recombinant human TGFβ1 (BioLegend, #580702) was added to the culture media and treated for 24 ~ 48 h. Anti-TGFβ neutralizing antibody (1D11) and the isotype control mouse IgG1 were from BioXcell. SB-525334 and bleomycin were from Sigma. MK-0429 was synthesized by Merck & Co., Inc., Kenilworth, NJ, USA. CHOK1-integrin stable lines were cultured in DMEM/F12, Glutamax (Gibco #10565018), 10% FBS (Gibco 310091148), 1 × Pen/Strep (Gibco 315140-148), and 6 ug/mL Puromycin (Gibco #A1113803).
(§2) Primary cells (passage 3–5) were grown on Cell carrier Ultra, col1 coated 96-well plates (Perkin Elmer, #6055700) at a density of 25,000 cells/well. Once the cells adhere, they were starved in serum free media for 24 h followed by addition of treatments i.e. 5 ng/mL TGFβ (Biolegend #580702) ± inhibitors. Cells were pre-treated with inhibitors for 30 min prior to the addition of TGFβ stimulation. 48hours post treatment, the cells were fixed in 4% methanol free paraformaldehyde (ThermoFisher Scientific #28908) for 20 min at room temperature and incubated with anti-alpha smooth muscle Actin antibody (Abcam #ab7817) at 1:4000 overnight at 4 °C. […]

[4] = tested on: IPF patient lung fibroblasts; experiment: TGFβ-induced αSMA high-content imaging; type: cell-based, human; settings: TGFβ 5 ng/mL, 48 h, read-out: IC50 TGFβ-mediated αSMA induction
Procedure: as §1, §2

[5] = treatment from day 5 for 14 days, MK-0429 200 mpk osmotic minipump, vs BLM-vehicle

| Mean plasma total drug concentration [2] | SMILES | TIMP-1 content in BALF ([1]; 14 days treatment, MK-0429 200 mpk minipump) | Modified Ashcroft score of mouse lung [1, 5] | Total inflammation area in mouse lungs [1, 5] | αSMA immunohistochemistry in lung [1, 5] | Body weight vs bleomycin group ([1]; MK-0429 200 mpk minipump) | αSMA intensity and percentage of stimulated cells following TGFβ treatment [3] | IC50 [4] [nM] |
| --- | --- | --- | --- | --- | --- | --- | --- | --- |
| 656.1 ng/mL and 656 ± 229 ng/mL | COC(=O)c1ccc2c(c1)NC(=O)/C2=C(\Nc1ccc(N(C)C(=O)CN2CCN(C)CC2)cc1)c1ccccc1 [Nintedanib] | significantly decreased | significantly improved | decreased | significantly decreased | no significant body weight difference | – | – |
| – | Cc1cccc(-c2[nH]c(C(C)(C)C)nc2-c2ccc3nccnc3c2)n1 [SB-525334] | – | – | – | – | – | significantly reduced | 56 ± 22 |
